Patent US10675284B2, “Treatment of B-cell malignancies by a combination JAK and PI3K inhibitors” (Incyte Corporation, priority 2014, dated 2020)
Where two headings read alike, the source gives them in different places.

Tests used:
[1] = target: human JAK1 (a.a. 837-1142) (Homo sapiens, UniProt P23458); test: In vitro JAK kinase assay (HTRF), JAK1; assay type: biochemical
[2] = target: human JAK2 (a.a. 828-1132) (Homo sapiens (Human), UniProt O60674); test: In vitro JAK kinase assay (HTRF), JAK2; assay type: biochemical; conditions: IC50 ratio, 1 mM ATP
human JAK2 (a.a. 828-1132), sequence (O60674 828-1132): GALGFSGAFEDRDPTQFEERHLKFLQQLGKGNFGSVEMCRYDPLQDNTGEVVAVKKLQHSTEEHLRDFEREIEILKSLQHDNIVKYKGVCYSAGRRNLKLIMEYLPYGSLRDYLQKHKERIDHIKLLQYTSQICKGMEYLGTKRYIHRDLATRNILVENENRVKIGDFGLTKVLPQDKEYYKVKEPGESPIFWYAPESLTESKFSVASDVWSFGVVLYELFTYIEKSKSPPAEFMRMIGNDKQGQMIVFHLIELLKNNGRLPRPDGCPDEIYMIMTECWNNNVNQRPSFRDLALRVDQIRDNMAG

[3] = tested on: Pfeiffer cells; test: Western blot analysis of Pfeiffer cells; assay type: cell-based, human; conditions: 24 hours
Experimental: The following materials and methods were used in the Western blot analysis infra. Cells (5 million) were lysed in a 300 μl volume of lysis buffer. Soluble fractions were collected by centrifugation. 25 μl of cell lysate were loaded into Tris-Glycine polyacrylamide gels and subjected to electrophoresis. The proteins were transferred into nitrocellulose membrane and probed with antibodies from Cell Signaling Technology for the following proteins: phospho-Stat3 Y705, phospho-Akt 5473, pim1, pim2, pim3, c-myc, phospho-p70S6K, phosho-S6, phospho-Bad S112 and actin.
IL6 and IL10 promote cell survival through the expression of Pim2, which is dependent on JAK1 activity.
Extracts were analyzed by Western blot for pAKT and pSTAT3.

human JAK1 (a.a. 837-1142), sequence (P23458 whole entry, looked up): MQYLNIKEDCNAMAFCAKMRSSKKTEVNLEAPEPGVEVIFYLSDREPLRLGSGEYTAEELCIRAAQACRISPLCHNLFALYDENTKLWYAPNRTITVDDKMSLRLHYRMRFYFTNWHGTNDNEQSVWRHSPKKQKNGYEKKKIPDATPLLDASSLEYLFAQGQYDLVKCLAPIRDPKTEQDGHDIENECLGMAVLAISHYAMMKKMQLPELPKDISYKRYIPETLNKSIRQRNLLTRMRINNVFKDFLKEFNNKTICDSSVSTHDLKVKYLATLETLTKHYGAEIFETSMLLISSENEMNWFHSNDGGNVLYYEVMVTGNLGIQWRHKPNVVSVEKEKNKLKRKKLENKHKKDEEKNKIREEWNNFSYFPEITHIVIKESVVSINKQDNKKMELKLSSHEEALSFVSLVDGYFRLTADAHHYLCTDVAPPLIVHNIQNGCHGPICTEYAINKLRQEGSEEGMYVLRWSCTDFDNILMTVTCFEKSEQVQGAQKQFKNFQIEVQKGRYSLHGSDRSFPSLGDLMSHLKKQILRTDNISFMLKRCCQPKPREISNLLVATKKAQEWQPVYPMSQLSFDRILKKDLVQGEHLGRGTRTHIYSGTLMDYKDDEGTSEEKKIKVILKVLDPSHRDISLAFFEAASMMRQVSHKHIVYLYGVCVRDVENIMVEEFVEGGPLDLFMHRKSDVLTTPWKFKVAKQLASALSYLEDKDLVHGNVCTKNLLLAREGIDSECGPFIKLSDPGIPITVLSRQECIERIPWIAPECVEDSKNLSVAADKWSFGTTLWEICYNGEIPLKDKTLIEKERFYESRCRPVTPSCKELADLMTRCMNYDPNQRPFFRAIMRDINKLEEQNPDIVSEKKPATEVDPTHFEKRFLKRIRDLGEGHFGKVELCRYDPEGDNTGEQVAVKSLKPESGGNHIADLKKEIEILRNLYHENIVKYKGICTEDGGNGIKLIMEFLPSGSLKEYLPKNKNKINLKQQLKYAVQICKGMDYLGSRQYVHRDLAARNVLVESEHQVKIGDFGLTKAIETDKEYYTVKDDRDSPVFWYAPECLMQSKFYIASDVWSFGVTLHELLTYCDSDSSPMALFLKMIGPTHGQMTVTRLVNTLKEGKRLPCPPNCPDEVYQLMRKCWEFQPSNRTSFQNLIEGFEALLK

Q: `N#CCC(C1CCN(c2cccc(Cl)n2)C1)n1cc(-c2ncnc3[nH]ccc23)cn1` (single isomer, unassigned) [Compound 3, 3-[1-(6-chloropyridin-2-yl)pyrrolidin-3-yl]-3-[4-(7H-pyrrolo[2,3-d]pyrimidin-4-yl)-1H-pyrazol-1-yl]propanenitrile] was tested. Which IC50 [1] did it give?
A: Its IC50 is under 0.01 µM.

Q: And the JAK2/JAK1 [2]?
A: The JAK2/JAK1 was over 10.

Q: Which results are given for `C[C@@H](O)c1nc2cnc3ccsc3c2n1[C@H]1CC[C@H](CC#N)OC1` [Compound 1, ((2R,5S)-5-{2-[(1R)-1-hydroxyethyl]-1H-imidazo[4,5-d]thieno[3,2-b]pyridin-1-yl}tetrahydro-2H-pyran-2-yl)acetonitrile]?
A: IC50 ([1]; 1 mM ATP, read-out: JAK1 IC50): < 0.1 µM; JAK2/JAK1 [2]: >10

Q: What does the source list for `N#CCC(C1CCN(c2nc3cccnc3o2)C1)n1cc(-c2ncnc3[nH]ccc23)cn1` (stereo not shown) [Compound 4, 3-(1-[1,3]oxazolo[5,4-b]pyridin-2-ylpyrrolidin-3-yl)-3-[4-(7H-pyrrolo[2,3-d]pyrimidin-4-yl)-1H-pyrazol-1-yl]propanenitrile]?
A: IC50 ([1]; 1 mM ATP, read-out: JAK1 IC50): < 0.01 µM; JAK2/JAK1 [2]: >10

Q: For `N#CCC(CN1CCN(C(=O)c2ccc(C#N)cc2F)CC1)n1cc(-c2ncnc3[nH]ccc23)cn1` (stereo not shown) [Compound 5, 4-[(4-{3-cyano-2-[4-(7H-pyrrolo[2,3-d]pyrimidin-4-yl)-1H-pyrazol-1-yl]propyl}piperazin-1-yl)carbonyl]-3-fluorobenzonitrile], which IC50 ([1]; 1 mM ATP, read-out: JAK1 IC50) is on record?
A: The IC50 was under 0.01 µM.

Q: And the JAK2/JAK1 [2]?
A: Its JAK2/JAK1 is over 10.

Q: For `N#CCC(CN1CCN(C(=O)c2ccc(C#N)cc2F)CC1)n1ccc(-c2ncnc3[nH]ccc23)c1` (stereo not shown) [Compound 6, 4-[(4-{3-cyano-2-[3-(7H-pyrrolo[2,3-d]pyrimidin-4-yl)-1H-pyrrol-1-yl]propyl}piperazin-1-yl)carbonyl]-3-fluorobenzonitrile], which IC50 ([1]; 1 mM ATP, read-out: JAK1 IC50) is on record?
A: Its IC50 is under 0.01 µM.

Q: What about the JAK2/JAK1 [2] of the same molecule?
A: The JAK2/JAK1 was over 10.

Q: Which “IL10-induced expression of Pim2” value [3] does the source give for `N#CCC1(n2cc(-c3ncnc4[nH]ccc34)cn2)CN(C2CCN(C(=O)c3ccnc(C(F)(F)F)c3F)CC2)C1` [Compound 7, {1-{1-[3-Fluoro-2-(trifluoromethyl)isonicotinoyl]piperidin-4-yl}-3-[4-(7H-pyrrolo[2,3-d]pyrimidin-4-yl)-1H-pyrazol-1-yl]azetidin-3-yl}acetonitrile] here?
A: Its value is “blocked”.

Q: What about the IC50 ([1]; 1 mM ATP, read-out: JAK1 IC50) of the same molecule?
A: Its IC50 is under 0.01 µM.

Q: What about the JAK2/JAK1 [2] of the same molecule?
A: The JAK2/JAK1 was over 10.

Q: Which results are given for `N#CCC1(n2cc(-c3ncnc4[nH]ccc34)cn2)CN(C2CCN(C(=O)Nc3ccc(F)cc3C(F)(F)F)CC2)C1` [Compound 8, 4-{3-(cyanomethyl)-3-[4-(7H-pyrrolo[2,3-d]pyrimidin-4-yl)-1H-pyrazol-1-yl]azetidin-1-yl}-N-[4-fluoro-2-(trifluoromethyl)phenyl]piperidine-1-carboxamide]?
A: IC50 ([1]; 1 mM ATP, read-out: JAK1 IC50): < 0.01 µM; JAK2/JAK1 [2]: >10

Q: `N#CCC1(n2cc(-c3ncnc4[nH]ccc34)cn2)CN(C2CCN(C(=O)c3ccnc(C(F)(F)F)n3)CC2)C1` [Compound 9, [3-[4-(7H-pyrrolo[2,3-d]pyrimidin-4-yl)-1H-pyrazol-1-yl]-1-(1-{[2-(trifluoromethyl)pyrimidin-4-yl]carbonyl}piperidin-4-yl)azetidin-3-yl]acetonitrile] was tested. Which IC50 ([1]; 1 mM ATP, read-out: JAK1 IC50) did it give?
A: Its IC50 is under 0.01 µM.

Q: What about the JAK2/JAK1 [2] of the same molecule?
A: Its JAK2/JAK1 is over 10.

Q: How did the IC50 ([1]; 1 mM ATP, read-out: JAK1 IC50) turn out when `N#CC[C@]1(n2cc(-c3ncnc4[nH]ccc34)cn2)C[C@H](N2CCN(C(=O)c3ccnc(C(F)(F)F)n3)CC2)C1` [Compound 10, [trans-1-[4-(7H-pyrrolo[2,3-d]pyrimidin-4-yl)-1H-pyrazol-1-yl]-3-(4-{[2-(trifluoromethyl)pyrimidin-4-yl]carbonyl}piperazin-1-yl)cyclobutyl]acetonitrile] was run?
A: The IC50 was under 0.01 µM.

Q: And the JAK2/JAK1 [2]?
A: The JAK2/JAK1 was over 10.

Q: For `N#CC[C@]1(n2cc(-c3ncnc4[nH]ccc34)cn2)C[C@H](N2CCC(Oc3cc(CN4CC(O)C4)cc(C(F)(F)F)n3)CC2)C1` [Compound 11, {trans-3-(4-{[4-[(3-hydroxyazetidin-1-yl)methyl]-6-(trifluoromethyl)pyridin-2-yl]oxy}piperidin-1-yl)-1-[4-(7H-pyrrolo[2,3-d]pyrimidin-4-yl)-1H-pyrazol-1-yl]cyclobutyl}acetonitrile], which IC50 ([1]; 1 mM ATP, read-out: JAK1 IC50) is on record?
A: Its IC50 is under 0.01 µM.

Q: What does the source list for `N#CC[C@]1(n2cc(-c3ncnc4[nH]ccc34)cn2)C[C@H](N2CCC(Oc3cc(CN4CCC[C@H]4CO)cc(C(F)(F)F)n3)CC2)C1` [Compound 12, {trans-3-(4-{[4-{[(2S)-2-(hydroxymethyl)pyrrolidin-1-yl]methyl}-6-(trifluoromethyl)pyridin-2-yl]oxy}piperidin-1-yl)-1-[4-(7H-pyrrolo[2,3-d]pyrimidin-4-yl)-1H-pyrazol-1-yl]cyclobutyl}acetonitrile]?
A: IC50 ([1]; 1 mM ATP, read-out: JAK1 IC50): < 0.01 µM; JAK2/JAK1 [2]: >10

Q: `N#CC[C@]1(n2cc(-c3ncnc4[nH]ccc34)cn2)C[C@H](N2CCC(Oc3cc(CN4CCC[C@@H]4CO)cc(C(F)(F)F)n3)CC2)C1` [Compound 13, {trans-3-(4-{[4-{[(2R)-2-(hydroxymethyl)pyrrolidin-1-yl]methyl}-6-(trifluoromethyl)pyridin-2-yl]oxy}piperidin-1-yl)-1-[4-(7H-pyrrolo[2,3-d]pyrimidin-4-yl)-1H-pyrazol-1-yl]cyclobutyl}acetonitrile] was tested. Which IC50 ([1]; 1 mM ATP, read-out: JAK1 IC50) did it give?
A: The IC50 was under 0.01 µM.

Q: And the JAK2/JAK1 [2]?
A: Its JAK2/JAK1 is over 10.

Q: What does the source list for `N#CCC1(n2cc(-c3ncnc4[nH]ccc34)cn2)CN([C@H]2CC[C@@H](Oc3cc(CCO)nc(C(F)(F)F)n3)CC2)C1` [Compound 18, {1-(cis-4-{[6-(2-hydroxyethyl)-2-(trifluoromethyl)pyrimidin-4-yl]oxy}cyclohexyl)-3-[4-(7H-pyrrolo[2,3-d]pyrimidin-4-yl)-1H-pyrazol-1-yl]azetidin-3-yl}acetonitrile]?
A: IC50 ([1]; 1 mM ATP, read-out: JAK1 IC50): < 0.01 µM; JAK2/JAK1 [2]: >10

Q: For `CCNCc1cc(O[C@H]2CC[C@@H](N3CC(CC#N)(n4cc(-c5ncnc6[nH]ccc56)cn4)C3)CC2)nc(C(F)(F)F)c1` [Compound 19, {1-(cis-4-{[4-[(ethylamino)methyl]-6-(trifluoromethyl)pyridin-2-yl]oxy}cyclohexyl)-3-[4-(7H-pyrrolo[2,3-d]pyrimidin-4-yl)-1H-pyrazol-1-yl]azetidin-3-yl}acetonitrile], which IC50 ([1]; 1 mM ATP, read-out: JAK1 IC50) is on record?
A: The IC50 was under 0.01 µM.

Q: And the JAK2/JAK1 [2]?
A: Its JAK2/JAK1 is over 10.

Q: What does the source list for `CC(C)(O)c1cc(O[C@H]2CC[C@@H](N3CC(CC#N)(n4cc(-c5ncnc6[nH]ccc56)cn4)C3)CC2)nc(C(F)(F)F)c1` [Compound 20, {1-(cis-4-{[4-(1-hydroxy-1-methylethyl)-6-(trifluoromethyl)pyridin-2-yl]oxy}cyclohexyl)-3-[4-(7H-pyrrolo[2,3-d]pyrimidin-4-yl)-1H-pyrazol-1-yl]azetidin-3-yl}acetonitrile]?
A: IC50 ([1]; 1 mM ATP, read-out: JAK1 IC50): < 0.01 µM; JAK2/JAK1 [2]: >10

Q: `N#CCC1(n2cc(-c3ncnc4[nH]ccc34)cn2)CN([C@H]2CC[C@@H](Oc3cc(CN4CC[C@@H](O)C4)cc(C(F)(F)F)n3)CC2)C1` [Compound 21, {1-(cis-4-{[4-{[(3R)-3-hydroxypyrrolidin-1-yl]methyl}-6-(trifluoromethyl)pyridin-2-yl]oxy}cyclohexyl)-3-[4-(7H-pyrrolo[2,3-d]pyrimidin-4-yl)-1H-pyrazol-1-yl]azetidin-3-yl}acetonitrile] was tested. Which IC50 ([1]; 1 mM ATP, read-out: JAK1 IC50) did it give?
A: The IC50 was under 0.01 µM.

Q: And the JAK2/JAK1 [2]?
A: Its JAK2/JAK1 is over 10.

Q: How did the IC50 ([1]; 1 mM ATP, read-out: JAK1 IC50) turn out when `N#CCC1(n2cc(-c3ncnc4[nH]ccc34)cn2)CN([C@H]2CC[C@@H](Oc3cc(CN4CC[C@H](O)C4)cc(C(F)(F)F)n3)CC2)C1` [Compound 22, {1-(cis-4-{[4-{[(3S)-3-hydroxypyrrolidin-1-yl]methyl}-6-(trifluoromethyl)pyridin-2-yl]oxy}cyclohexyl)-3-[4-(7H-pyrrolo[2,3-d]pyrimidin-4-yl)-1H-pyrazol-1-yl]azetidin-3-yl}acetonitrile] was run?
A: Its IC50 is under 0.01 µM.

Q: What about the JAK2/JAK1 [2] of the same molecule?
A: Its JAK2/JAK1 is over 10.

Q: Which results are given for `C[C@@H](CO)NCc1cc(OC2CCN([C@H]3C[C@](CC#N)(n4cc(-c5ncnc6[nH]ccc56)cn4)C3)CC2)nc(C(F)(F)F)c1` [Compound 23, {trans-3-(4-{[4-({[(1S)-2-hydroxy-1-methylethyl]amino}methyl)-6-(trifluoromethyl)pyridin-2-yl]oxy}piperidin-1-yl)-1-[4-(7H-pyrrolo[2,3-d]pyrimidin-4-yl)-1H-pyrazol-1-yl]cyclobutyl}acetonitrile]?
A: IC50 ([1]; 1 mM ATP, read-out: JAK1 IC50): < 0.01 µM; JAK2/JAK1 [2]: >10

Q: Which results are given for `C[C@@H](O)CNCc1cc(OC2CCN([C@H]3C[C@](CC#N)(n4cc(-c5ncnc6[nH]ccc56)cn4)C3)CC2)nc(C(F)(F)F)c1` [Compound 24, {trans-3-(4-{[4-({[(2R)-2-hydroxypropyl]amino}methyl)-6-(trifluoromethyl)pyridin-2-yl]oxy}piperidin-1-yl)-1-[4-(7H-pyrrolo[2,3-d]pyrimidin-4-yl)-1H-pyrazol-1-yl]cyclobutyl}acetonitrile]?
A: IC50 ([1]; 1 mM ATP, read-out: JAK1 IC50): < 0.01 µM; JAK2/JAK1 [2]: >10

Q: For `C[C@H](O)CNCc1cc(OC2CCN([C@H]3C[C@](CC#N)(n4cc(-c5ncnc6[nH]ccc56)cn4)C3)CC2)nc(C(F)(F)F)c1` [Compound 25, {trans-3-(4-{[4-({[(2S)-2-hydroxypropyl]amino}methyl)-6-(trifluoromethyl)pyridin-2-yl]oxy}piperidin-1-yl)-1-[4-(7H-pyrrolo[2,3-d]pyrimidin-4-yl)-1H-pyrazol-1-yl]cyclobutyl}acetonitrile], which IC50 ([1]; 1 mM ATP, read-out: JAK1 IC50) is on record?
A: The IC50 was under 0.01 µM.

Q: And the JAK2/JAK1 [2]?
A: Its JAK2/JAK1 is over 10.

Q: How did the IC50 ([1]; 1 mM ATP, read-out: JAK1 IC50) turn out when `N#CC[C@]1(n2cc(-c3ncnc4[nH]ccc34)cn2)C[C@H](N2CCC(Oc3cc(CCO)cc(C(F)(F)F)n3)CC2)C1` [Compound 26, {trans-3-(4-{[4-(2-hydroxyethyl)-6-(trifluoromethyl)pyridin-2-yl]oxy}piperidin-1-yl)-1-[4-(7H-pyrrolo[2,3-d]pyrimidin-4-yl)-1H-pyrazol-1-yl]cyclobutyl}acetonitrile] was run?
A: The IC50 was under 0.01 µM.

Q: And the JAK2/JAK1 [2]?
A: The JAK2/JAK1 was over 10.

Q: With `N#CC[C@H](C1CCCC1)n1cc(-c2ncnc3[nH]ccc23)cn1` [ruxolitinib, (3R)-3-cyclopentyl-3-[4-(7H-pyrrolo[2,3-d]pyrimidin-4-yl)-1H-pyrazol-1-yl]propanenitrile, reference compound] as the molecule, how does the “IL10-induced expression of Pim2” value [3] read?
A: The value was “blocked”.
